The subject of assay [1] is Wnt/β-catenin signaling (β-catenin activity) in SW480 cell line. The assay is described as follows: Cell-based Wnt agonist screening, TCF luciferase reporter, SW480 (TCF-FL). Set-up: species or system human. To be noted: Homo sapiens, % of LiCl (20 mM), 24 h, read-out: Max. Activity (%); for Emax at 30 µM: Con. 30 μM; for Emax at 60 µM: Con. 60 μM; for Emax at 120 µM: Con. 120 μM. From the text:
(§1) In order to measure the in vitro activity of compounds of the present invention, two human cancer cell lines, HEK293 and SW480, which have intact Wnt signaling and show APC gene mutation in the Wnt signaling pathway, respectively, were used.
(§2) For evaluating the activity of wnt/β-catenin signaling in the cancer cell lines, gene as illustrated in FIG. 1 having β-catenin-binding sites of the Tcf/Lef transcriptional control protein (5 sites of TCF, 5X TCF) and having a fire fly luficerase as a marker protein ascertainable the activity of 5X TCF was introduced into the cells. Treatment with G418 led monoclones of the cell lines, in which the genes were permanently expressed, so as to construct a cell-based Wnt agonist screening system. […] For comparison with the activity of the isoxazole derivatives as Wnt agonists, lithium chloride (LiCl), acting as a positive control for the cell-based Wnt agonist screening system, was used to determine the expression level of the luciferase, and the results are shown in FIG. 3.
(§3) The cell lines, in which a cell-based Wnt agonist screening system was constructed, were cultured in RPMI 1640 media supplemented with penicillin-streptomycin (100 Units/mL) and heat-inactivated 5% fetal bovine serum under standard culture conditions (5% CO2, 37° C., 100% relative humidity). […] The suspension was diluted with the same medium to adjust the cell count to 8,000˜15,000 cells per well and was moved then in a 96-well microtiter plate. After being incubated for 24 hrs, the cells were treated with various concentrations of the isoxazole derivatives synthesized in Preparation Examples. Incubation for an additional 24 hours was followed by the quantitative analysis of luciferase activity using a Luciferase Assay kit (Promega, U.S.A.) according to the protocol described in the manual provided by the manufacturer. Data on the activities of the isoxazole derivatives thus synthesized are given in Tables 34 to 43, and are expressed as percentages relative to the activity of the positive control LiCl (20 mM), a well-known agonist of Wnt signaling.
(In general: A reporter such as luciferase makes a cellular process visible.)

The subject of assay [2] is Wnt/β-catenin signaling (β-catenin activity) in HEK293 cell line. The assay is described as follows: Cell-based Wnt agonist screening, TCF luciferase reporter, HEK293 (TCF-FL). Set-up: species or system human. To be noted: Homo sapiens, HEK293, 24 h, % of LiCl (20 mM), 24 h, read-out: Max. Activity (%); for Emax at 30 µM: Conc. 30 μM; for Emax at 60 µM: Conc. 60 μM; for Emax at 120 µM: Conc. 120 μM.
Source text: as §1, §2, §3

Each structure is given as a SMILES string.

On to `CCc1c(C(=O)NCCCn2ccnc2)noc1-c1ccco1` [Derivative (66), 4-ethyl-5-furan-2-yl-isoxazole-3-carboxylic acid (3-imidazol-1-yl-propyl)-amide], for which the Emax at 30 µM in assay [1] and in assay [2] was less than 20% throughout.
For `O=C(NCCCn1ccnc1)c1noc(-c2ccco2)c1Cc1ccccc1` [Derivative (67), 4-benzyl-5-furan-2-yl-isoxazole-3-carboxylic acid (3-imidazol-1-yl-propyl)-amide], the Emax at 30 µM in assay [1] and in assay [2] was less than 20% throughout.
Regarding `O=C(NCCCn1ccnc1)c1cc(-c2ccccc2)on1` [Derivative (68), 5-phenyl-isoxazole-3-carboxylic acid (3-imidazol-1-yl-propyl)-amide], the Emax at 60 µM in assay [1] was 486%. Moreover, the Emax at 30 µM in assay [2] stood at 47%.
`O=C(NCCn1ccnc1)c1cc(-c2ccccc2)on1` [Derivative (69), 5-phenyl-isoxazole-3-carboxylic acid (2-imidazol-1-yl-ethyl)-amide]: the Emax at 30 µM in assay [1] and in assay [2] was less than 20% each time.
On to `O=C(NCCc1ccccn1)c1cc(-c2ccccc2)on1` [Derivative (70), 5-phenyl-isoxazole-3-carboxylic acid (2-pyridin-2-yl-ethyl)-amide], for which, in assay [1], the Emax at 120 µM amounted to 789%. Further, the Emax at 60 µM in assay [2] was 51%.
Take `O=C(NCCCn1ccnc1)c1cc(-c2ccccn2)on1` [Derivative (75), 5-pyridin-2-yl-isoxazole-3-carboxylic acid (3-imidazol-1-yl-propyl)-amide]: the Emax at 30 µM in assay [1] and in assay [2] was less than 20% each time.
`O=C(NCCCn1ccnc1)c1cc(-c2cccnc2)on1` [Derivative (76), 5-pyridin-3-yl-isoxazole-3-carboxylic acid (3-imidazol-1-yl-propyl)-amide]: the Emax at 30 µM in assay [1] and in assay [2] was less than 20% in each case.
Consider `O=C(NCCCn1ccnc1)c1cc(-c2ccncc2)on1` [Derivative (77), 5-pyridin-4-yl-isoxazole-3-carboxylic acid (3-imidazol-1-yl-propyl)-amide], for which the Emax at 30 µM in assay [1] and in assay [2] was less than 20% in each case.
As for `Cc1ccccc1-c1cc(C(=O)NCCCn2ccnc2)no1` [Derivative (78), 5-o-tolyl-isoxazole-3-carboxylic acid (3-imidazol-1-yl-propyl)-amide], the Emax at 120 µM in assay [1] and in assay [2] was 42% each time.
For the compound `Cc1cccc(-c2cc(C(=O)NCCCn3ccnc3)no2)c1` [Derivative (79), 5-m-tolyl-isoxazole-3-carboxylic acid (3-imidazol-1-yl-propyl)-amide], the Emax at 10 µM in assay [1] (Con. 10 μM) and in assay [2] (Conc. 10 μM) was 48% in each case.
Turning to `Cc1ccc(-c2cc(C(=O)NCCCn3ccnc3)no2)cc1` [Derivative (80), 5-p-tolyl-isoxazole-3-carboxylic acid (3-imidazol-1-yl-propyl)-amide], the Emax at 120 µM in assay [1] and in assay [2] was 58% each time.
`O=C(NCCCn1ccnc1)c1cc(-c2ccccc2F)on1` [Derivative (81), 5-(2-fluoro-phenyl)-isoxazole-3-carboxylic acid (3-imidazol-1-yl-propyl)-amide]: the Emax at 120 µM in assay [1] and in assay [2] was 869% each time.
For `O=C(NCCCn1ccnc1)c1cc(-c2cccc(F)c2)on1` [Derivative (82), 5-(3-fluoro-phenyl)-isoxazole-3-carboxylic acid (3-imidazol-1-yl-propyl)-amide], the Emax at 120 µM in assay [1] and in assay [2] was 67% in each case.
Consider `O=C(NCCCn1cncn1)c1cc(-c2ccc(F)cc2)on1` [Derivative (84), 5-(4-fluoro-phenyl)-isoxazole-3-carboxylic acid (3-[1,2,4]triazol-1-yl-propyl)-amide], for which the Emax at 30 µM in assay [1] and in assay [2] was 907% in each case.
Regarding `O=C(NCCn1cncn1)c1cc(-c2ccc(F)cc2)on1` [Derivative (88), 5-(4-fluoro-phenyl)-isoxazole-3-carboxylic acid (2-[1,2,4]triazol-1-yl-ethyl)-amide], the Emax at 120 µM in assay [1] and in assay [2] was 600% in each case.
As for `O=C(NCCn1nccn1)c1cc(-c2ccc(F)cc2)on1` [Derivative (89), 5-(4-fluoro-phenyl)-isoxazole-3-carboxylic acid (2-[1,2,3]triazol-2-yl-ethyl)-amide], the Emax at 30 µM in assay [1] and in assay [2] was 132% each time.
As for `O=C(NCCn1ccnn1)c1cc(-c2ccc(F)cc2)on1` [Derivative (90), 5-(4-fluoro-phenyl)-isoxazole-3-carboxylic acid (2-[1,2,3]triazol-1-yl-ethyl)-amide], the Emax at 30 µM in assay [1] and in assay [2] was 92% each time.
As for `O=C(NCCn1ncnn1)c1cc(-c2ccc(F)cc2)on1` [Derivative (91), 5-(4-fluoro-phenyl)-isoxazole-3-carboxylic acid (2-tetrazol-2-yl-ethyl)-amide], the Emax at 30 µM in assay [1] and in assay [2] was 103% in each case.
As for `COc1ccccc1-c1cc(C(=O)NCCCn2ccnc2)no1` [Derivative (99), 5-(2-methoxy-phenyl)-isoxazole-3-carboxylic acid (3-imidazol-1-yl-propyl)-amide], the Emax at 120 µM in assay [1] and in assay [2] was 37% throughout.
In the case of `COc1cccc(-c2cc(C(=O)NCCCn3ccnc3)no2)c1` [Derivative (100), 5-(3-methoxy-phenyl)-isoxazole-3-carboxylic acid (3-imidazol-1-yl-propyl)-amide], the Emax at 120 µM in assay [1] and in assay [2] was 59% throughout.
In the case of `O=C(NCCCn1ccnc1)c1cc(-c2cccc(O)c2)on1` [Derivative (106), 5-(3-hydroxy-phenyl)-isoxazole-3-carboxylic acid (3-imidazol-1-yl-propyl)-amide], the Emax at 30 µM in assay [1] and in assay [2] was 277% each time. Moreover, in assay [2] (Conc. 7.5 μM), the Emax at 7.5 µM was found to be 29%.
Take `O=C(NCCCn1ccnc1)c1cc(-c2ccc(O)cc2)on1` [Derivative (107), 5-(4-hydroxy-phenyl)-isoxazole-3-carboxylic acid (3-imidazol-1-yl-propyl)-amide]: the Emax at 60 µM in assay [1] was 584%. Moreover, in assay [2], the Emax at 30 µM turned out to be 28% and the Emax at 60 µM came out at 584%.
For the compound `O=C(NCCc1ccncc1)c1cc(-c2cccc(O)c2)on1` [Derivative (108), 5-(3-hydroxy-phenyl)-isoxazole-3-carboxylic acid (2-pyridin-4-yl-ethyl)-amide], the Emax at 15 µM in assay [1] (Con. 15 μM) and in assay [2] (Conc. 15 μM) was 600% throughout. In addition, the Emax at 30 µM in assay [2] was less than 20%.
In the case of `O=C(NCCc1cccnc1)c1cc(-c2cccc(O)c2)on1` [Derivative (110), 5-(3-hydroxy-phenyl)-isoxazole-3-carboxylic acid (2-pyridin-3-yl-ethyl)-amide], the Emax at 30 µM in assay [1] and in assay [2] was less than 20% in each case.
`O=C(NCCCn1ccnc1)c1cc(-c2ccccc2[N+](=O)[O-])on1` [Derivative (112), 5-(2-nitro-phenyl)-isoxazole-3-carboxylic acid (3-imidazol-1-yl-propyl)-amide]: the Emax at 120 µM in assay [1] and in assay [2] was 51% in each case.

The values above are taken from patent publication US7915297B2, “Isoxazole derivatives and use thereof” (SK Holdings Co., Ltd., priority 2005, dated 2011).
